1 molecule from US5120758A, “Certain benzodioxole, benzodioxane and benzodioxepin derivatives useful as 5-lipoxygenase inhibitors” (Ciba-Geigy Corporation, priority 1991, dated 1992) can be followed below.

Assay [1] addresses T1, 5-lipoxygenase (Cavia porcellus, UniProt A0A286X958).
T1 construct: in A-23187-stimulated guinea pig polymorphonuclear leukocytes; endogenous in cells; host or cells: guinea pig polymorphonuclear leukocytes
T1 sequence (A0A286X958 1-674): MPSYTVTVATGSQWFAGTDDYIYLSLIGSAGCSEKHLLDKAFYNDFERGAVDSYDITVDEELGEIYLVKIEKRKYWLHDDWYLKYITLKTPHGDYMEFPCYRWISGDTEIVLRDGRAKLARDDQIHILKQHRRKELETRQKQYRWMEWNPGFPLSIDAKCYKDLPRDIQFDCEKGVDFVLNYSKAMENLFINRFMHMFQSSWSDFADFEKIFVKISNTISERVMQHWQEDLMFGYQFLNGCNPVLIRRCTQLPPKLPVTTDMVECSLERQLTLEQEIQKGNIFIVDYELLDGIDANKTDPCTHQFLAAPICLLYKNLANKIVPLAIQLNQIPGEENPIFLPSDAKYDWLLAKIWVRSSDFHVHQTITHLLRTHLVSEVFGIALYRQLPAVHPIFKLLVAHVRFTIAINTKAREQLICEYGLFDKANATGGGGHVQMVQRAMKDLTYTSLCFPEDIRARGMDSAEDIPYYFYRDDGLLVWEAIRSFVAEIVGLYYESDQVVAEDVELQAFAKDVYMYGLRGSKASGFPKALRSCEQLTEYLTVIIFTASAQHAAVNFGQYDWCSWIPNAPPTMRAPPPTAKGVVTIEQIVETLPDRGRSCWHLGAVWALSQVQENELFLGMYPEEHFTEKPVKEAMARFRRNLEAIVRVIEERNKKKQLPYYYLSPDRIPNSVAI
Kind of assay: Inhibition of 5-HETE and LTB4 synthesis in A-23187-stimulated guinea pig polymorphonuclear leukocytes. The assay is classed as cell-based. The method, then: 5-Lipoxygenase inhibition is determined e.g. by measuring the percent inhibition of the synthesis of 5-HETE [(5S)-5-hydroxy-6,8,11,14-eicosa-tetraenoic acid] and leukotriene B4 (LTB4, 5,12-dihydroxy-6,8,10,14-eicosatetraenoic acid) in A-23187-stimulated guinea pig polymorphonuclear leukocytes, essentially according to radiometric thin-layer chromatographic assays described by Walker and Dawson (J. Pharm. Pharmacol. 31: 778, 1979) and Jakschik and Lee (Nature 287: 51, 1980) to measure the formation of 5-HETE and LTB4 -like products from ^14 C-arachidonic acid. IC50 values are determined graphically as the concentration of test compound at which the synthesis of 5-HETE and LTB4 -like products is reduced to 50% of their respective control values.

For assay [2], the system named is 5-lipoxygenase. Briefly: Ex vivo inhibition of A-23187-stimulated LTB4 formation in whole blood after oral administration. As to conditions: dose of about 1.0 mg/kg p.o. to the dog. The method, then:
Furthermore, the inhibition of 5-lipoxygenase is determined after oral or i.v. administration to rats or dogs by measuring ex vivo in whole blood the decrease of A-23187-stimulated LTB4 formation as compared to non-treated control animals.

Where two headings read alike, the source gives them in different places.

The IC50 is the concentration that inhibits the measured activity by half. Take `NC(=O)N(O)CC1COc2ccc(Oc3ccc(F)cc3)cc2O1` (stereo not drawn) [1(c), 2-(N-aminocarbonyl-N-hydroxy)aminomethyl-7-(4-fluorophenoxy)-1,4-benzodioxane]: the half-inhibitory concentration (IC50) is ~0.1 µM in assay [1] (read-out: IC50, inhibition of formation of 5-HETE) and ~0.12 µM in assay [1] (read-out: IC50, inhibition of formation of leukotriene B4 (LTB4)). The “inhibition of LTB4 formation as determined ex vivo” value in assay [2] is recorded as “significant inhibition”.
